The source of these data is patent publication US20190380941A1, “COMPOSITION COMPRISING A TRUFFLE EXTRACT AND NEOHESPERIDIN DIHYDROCHALCONE” (L'OREAL, priority 2016, published 2019).

This assay relates to filaggrin. In words: Filaggrin expression in normal human keratinocytes (NHEK), in-situ immunolabelling. The following applies: 72 hours incubation; for Mean filaggrin (AU): fluorescence intensity relative to number of cells, control 12261; for Mean filaggrin (AU) / % relative to the control (filaggrin): truffle extracts 4.5·10^−3% by weight of active material, Neohesperidin DHC 0.3 mg/ml, CaCl2 1.5 mM; for increase of filaggrin protein expression relative to the control: same concentrations as in the table, change versus control; for % relative to the control (filaggrin): control = 100. Format: cell-based. The source says: The in vitro effect of the combination of neohesperidin dihydrochalcone (neohesperidin DHC) and an extract of black (Périgord) truffle (Tuber melanosporum) and/or an extract of white (summer) truffle (Tuber aestivum) on keratinocyte differentiation is studied. The expression and the location of the marker of filaggrin differentiation are especially studied in keratinocytes in culture which thus makes it possible to evaluate the ability of these combinations to increase the differentiation of these cells. The culture medium is: Keratinocyte-SFM supplemented with: • 0.25 ng/ml Epidermal Growth Factor (EGF); • 25 μg/ml pituitary extract (PE); • 25 μg/ml Gentamicin; The test medium is Keratinocyte-SFM supplemented with 25 μg/ml Gentamicin. The keratinocytes were seeded into 96-well plates and cultured in culture medium for 168 hours with renewal of the culture medium after 24 and 96 hours of incubation. […] All the experimental conditions were carried out in n=3, except the control condition which was carried out in n=6. After incubation, the medium was eliminated and the cells were rinsed, fixed and permeabilized. The cells were then labelled with the primary antibody (see Table A) directed against the protein of interest (filaggrin). […] At the same time, the nuclei of the cells were stained with Hoechst 33258 (bisbenzimide). [table] The image acquisition was carried out with an INCellAnalyzer™ 1000 (GE Healthcare) high-resolution imaging system. For each well, 10 digitized images were captured for each immunolabelling (×20 objective).

On to `[Ca+2].[Cl-].[Cl-]` [CaCl2, calcium chloride], for which the “Mean filaggrin (AU)” value was found to be 74795 AU, the “increase of filaggrin protein expression relative to the control” value was “+510%” and the “% relative to the control (filaggrin)” value is 610%.

As for `COc1ccc(CCC(=O)c2c(O)cc(O[C@@H]3O[C@H](CO)[C@@H](O)[C@H](O)[C@H]3O[C@@H]3O[C@@H](C)[C@H](O)[C@@H](O)[C@H]3O)cc2O)cc1O` [Neohesperidin DHC, 1-(4-((2-O-[6-Deoxy-α-L-mannopyranosyl]-β-D-glucopyranosyl)oxy)-2,6-dihydroxyphenyl)-3-[3-hydroxy-4-methoxyphenyl]-1-propanone], the “Mean filaggrin (AU)” value stood at 18840 AU, the “increase of filaggrin protein expression relative to the control” value is “+54%” and the “% relative to the control (filaggrin)” value was determined as 154%.
